The values below come from patent US20250002526A1, “PHARMACEUTICAL COMPOSITION HAVING ANTI-CANCER IMMUNOSTIMULATING EFFECT AND/OR IMMUNE CHECKPOINT INHIBITION POTENTIATING EFFECT” (KYUSHU UNIVERSITY, NATIONAL UNIVERSITY CORPORATION, priority 2021, published 2025).

The test system of one test is E0771-SULT-PD-L1 cells. Nature of the test: In vivo tumor growth of E0771-SULT-PD-L1 cells with anti-PD-L1 antibody treatment. The arrangement: species or system mouse. As to conditions: oral cholenoic acid combined with anti-PD-L1 antibody, days 9, 12 and 15 after transplantation. On the procedure: As described later for each experiment, 200 μl of an anti-mouse PD-L1 antibody (10F.9G2, 0.5 mg/ml, BioXCell) or a control of the matched isotype (LTF-2, 0.5 mg/ml, BioXCell) was intraperitoneally injected into tumor-bearing mice (see experimental results (3)).
Cholenoic acid was suspended in 0.5% (w/v) methylcellulose 400 solution (FUJIFILM Wako Pure Chemical Corporation) at a proportion of 50 mg/ml, and a 200-μl portion (10 mg) of the suspension was orally administered to mice (see experimental results (6)). To examine the effect on the tumor infiltration of OTII cells or OTI T cells, 5 mg of cholenoic acid was orally administered three times at intervals of 6 hours in 2 days before the assay. […]
(§1) The growth of tumors was monitored by measuring the vertical diameters of each tumor with a caliper twice a week and calculating the tumor volumes from the following expression.

The next test has as its system E0771-SULT cells. Nature of the test: Trans-cancer migration assay (CCL21-induced T-cell migration). It is filed as cell-based, mouse. As to conditions: E0771-SULT cells pretreated with cholenoic acid (5 μM). An excerpt: FIG. 10 is a series of diagrams showing experimental results (6) in Experiment Example 1 (identification of cholenoic acid as a SULT2B1b inhibitor that promotes anti-tumor immunity). […] The data were acquired from two independent experiments, and expressed as mean±SD. * P<0.05; ** P<0.01 (one-way ANOVA followed by Dunnett's post-hoc test). The level of CCL21-induced T-cell migration in E0771-MOCK cells (CCL21+, SULT−) was used as a control for comparison. FIGS. 10B and 10C show results of enzyme kinetic analysis for SULT2B1b inhibition by cholenoic acid (3-OH-5-Chln). SULT2B1b protein (0.3 or 0.6 μM) was preincubated with cholenoic acid (20 or 40 μM) or a vehicle (2% DMSO), and reacted with cholesterol at different concentrations in the presence of 100 μM PAPS (FIG. 10B) or reacted with PAPS at different concentrations in the presence of 10 μM cholesterol (FIG. 10C). The data were fitted to the Michaelis-Menten equation (the left figures in FIGS. 10B and 10C), and their inhibition modes were analyzed with Lineweaver-Burk plots (right figures).
In carrying out the migration assay, T cells were loaded on E0771-MOCK cells (expressing only a vector; SULT−) or E0771-SULT cells (SULT+) seeded on Matrigel in an upper chamber.

Another test concerns E.G7-OVA-SULT cells. Nature of the test: In vivo tumor growth of E.G7-OVA-SULT cells with OTI T cell transfer. Also noted: species or system mouse. The settings on record: activated OTI T cells i.v. day 10, cholenoic acid oral days 13, 14 and 15. The method, then: In T cell transfer experiment, activated OTII CD4^+ T cells (2×10^6) and OTI CD8^+ T cells (5×10^5) were intravenously injected into tumor-bearing mice (see experimental results (4)).
Cholenoic acid was suspended in 0.5% (w/v) methylcellulose 400 solution (FUJIFILM Wako Pure Chemical Corporation) at a proportion of 50 mg/ml, and a 200-μl portion (10 mg) of the suspension was orally administered to mice (see experimental results (6)). To examine the effect on the tumor infiltration of OTII cells or OTI T cells, 5 mg of cholenoic acid was orally administered three times at intervals of 6 hours in 2 days before the assay.
CD4^+ T cells or CD8^+ T cells were magnetically selected from the spleen and peripheral lymph nodes of OTII and OTI TCR transgenic mice with Dynabeads mouse CD4 (Invitrogen), and then treated with DETACHaBEAD™ mouse CD4 (Invitrogen) or separated with a CD8a^+ T Cell Isolation Kit (Miltenyi Biotec). […]
as §1

“Also recorded” adds a separate entry of the source.

For the molecule `C[C@H](CCC(=O)O)[C@H]1CC[C@H]2[C@@H]3CC=C4C[C@@H](O)CC[C@]4(C)[C@H]3CC[C@]12C` [Compound 1, (R)-4-((3S,8S,9S,10R,13R,14S,17R)-3-hydroxy-10,13-dimethyl-2,3,4,7,8,9,10,11,12,13,14,15,16,17-tetradecahydro-1H-cyclopenta[a]phenanthren-17-yl)pentanoic acid], the “growth of E0771-SULT-PD-L1 cells (tumor volume)” value in the test on E0771-SULT-PD-L1 cells is “renders E0771-SULT-PD-L1 cells susceptible to immune checkpoint inhibition; also recorded: causes the growth of E0771-SULT-PD-L1 cells (tumor volume) to be suppressed”. In the test on E0771-SULT cells, the “CCL21-induced T-cell migration suppressed by E0771-SULT cells” value is on record as “suppression effect was not observed; also recorded: recovery”. In addition, in the test with E.G7-OVA-SULT cells, the “growth of E.G7-OVA-SULT cells / anti-tumor immunity of OTI T cells” value is “recovery of the effect of OTII cell or OTI T cell transplantation; also recorded: the growth of E.G7-OVA-SULT cells was suppressed”.
